According to patent publication US11203563B2, “Preparation of zinc linolenate, and application of zinc linolenate in preparing anti-helicobacter pylori drug” (NANJING MEDICAL UNIVERSITY, priority 2018, dated 2021):

How the values were obtained:
[1] = test system: Actinobacillus actinomycetemcomitans; test: MIC by microdilution method, non-Helicobacter pylori bacteria; assay type: cell-based; parameters: key: +: Bacterial growth; −: No bacterial growth; conditions: 72 h
Procedure: (§1) 2.2 Detection of minimum inhibitory concentration (MIC, 100 µL system) of zinc linolenate for non-Helicobacter pylori bacteria by microdilution method
(§2) (1) Zinc linolenate (2 mg/mL) is prepared.
(§3) (3) Bacterial solution preparation: the non-Helicobacter pylori grown in a log phase on a solid plate is taken to make a bacterial suspension with a BHI culture medium, the absorbance (OD600) is adjusted to 0.3 (1×10^8 CFU/mL), and the bacterial suspension is diluted 100 times to 1×10^6 CFU/mL for use.
(§4) (4) Inoculation of bacterial solution: 10 μL of bacterial solution above is taken and added to the 1-8th wells (the concentration of the bacterial solution per well is about 1.0×10^5 CFU/mL). Culture is performed for 72 h to judge the result. The drug concentrations of the first-seventh wells are 128, 64, 32, 16, 8, 4, and 2 μg/mL, respectively.
(§5) The experiment only makes sense when the bacteria obviously grow in the 8th well, i.e. the positive control well (without antibiotics). When a single drift occurs in the microdilution method, the maximum drug concentration that inhibits bacterial growth should be recorded. If there are multiple drifts, the results should not be reported and the experiment should be repeated. The experiment is repeated 3 times for each drug.

[2] = test system: Campylobacter jejuni (NCTC11168); test: as above; assay type: cell-based; parameters: key: +: Bacterial growth; −: No bacterial growth; conditions: 72 h
Procedure: as §1, §2, §3, §4, §5

Candida albicans = test: as above; assay type: cell-based; parameters: key: +: Bacterial growth; −: No bacterial growth; conditions: 72 h
Procedure: as §1, §2, §3, §4, §5

[3] = test system: Enterococcus faecium (ATCC19434); test: as above; assay type: cell-based; parameters: key: +: Bacterial growth; −: No bacterial growth; conditions: 72 h
Procedure: as §1, §2, §3, §4, §5

[4] = test system: Escherichia coli (MG1655); test: as above; assay type: cell-based; parameters: key: +: Bacterial growth; −: No bacterial growth; conditions: 72 h
Procedure: as §1, §2, §3, §4, §5

Listeria = test: as above; assay type: cell-based; parameters: key: +: Bacterial growth; −: No bacterial growth; conditions: 72 h
Procedure: as §1, §2, §3, §4, §5

[5] = test system: Moraxella catarrhalis (ATCC25238); test: as above; assay type: cell-based; parameters: key: +: Bacterial growth; −: No bacterial growth; conditions: 72 h
Procedure: as §1, §2, §3, §4, §5

[6] = test system: Proteus mirabilis (YF163006); test: as above; assay type: cell-based; parameters: key: +: Bacterial growth; −: No bacterial growth; conditions: 72 h
Procedure: as §1, §2, §3, §4, §5

[7] = test system: Pseudomonas aeruginosa (PA01); test: as above; assay type: cell-based; parameters: key: +: Bacterial growth; −: No bacterial growth; conditions: 72 h
Procedure: as §1, §2, §3, §4, §5

[8] = test system: Staphylococcus aureus (ATCC6538); test: as above; assay type: cell-based; parameters: key: +: Bacterial growth; −: No bacterial growth; conditions: 72 h
Procedure: as §1, §2, §3, §4, §5

[9] = test system: Streptococcus pneumoniae (ATCC49619); test: as above; assay type: cell-based; parameters: key: +: Bacterial growth; −: No bacterial growth; conditions: 72 h
Procedure: as §1, §2, §3, §4, §5

[10] = Blood biochemical indexes of liver and kidney functions, infected and treated mice; conditions: infected mice, therapeutic dose (omeprazole 138.2, amoxicillin 28.5, clarithromycin 14.3, zinc linolenate 24 mg/kg), intragastric, serum
Procedure: (2) Animal administration: the experimental group is intragastrically administered. The group with omeprazole is administered with omeprazole first, and then administered with other drugs 30 min later. After the mice are administered with the drugs, the mice fast for 4 hours. Calculated according to an average of 20 g/mouse of the weight of mice, the dosage is: omeprazole 138.2 mg/kg, amoxicillin 28.5 mg/kg, clarithromycin 14.3 mg/kg, and zinc linolenate 24 mg/kg, once a day for 5 consecutive times. The negative control group is administered with a PBS solution with the same dosage and number of times as above.
(3) Efficacy test: the mice in the infection group are weighed and the average weight is calculated on the 2 days after the drug is stopped. Blood is taken from the eyeballs and the mice are sacrificed by cervical dislocation. Stomach tissue is taken, and the isolation, culture and identification of Helicobacter pylori are the same as in 2.3.3 (3) and (4).
(4) Efficacy test: the mice in the infection group are weighed 3 days after the drug is stopped, and the average weight is calculated. Blood is taken from the eyeballs, and the mice are sacrificed by cervical dislocation. Stomach, kidney, liver and spleen tissues are taken, pathologically sectioned and HE stained, and serum is tested for liver and kidney functions.

CC/C=C\C/C=C\C/C=C\CCCCCCCC(=O)[O-].CC/C=C\C/C=C\C/C=C\CCCCCCCC(=O)[O-].[Zn+2] [zinc linolenate]
Bacterial growth ([1]; zinc linolenate 2 μg/ml): +
Bacterial growth ([1]; zinc linolenate 4 μg/ml): +
Bacterial growth ([1]; zinc linolenate 8 μg/ml): +
Bacterial growth ([1]; zinc linolenate 16 μg/ml): +
Bacterial growth ([1]; zinc linolenate 32 μg/ml): +
Bacterial growth ([1]; zinc linolenate 64 μg/ml): +
Bacterial growth ([1]; zinc linolenate 128 μg/ml): +
Bacterial growth ([2]; zinc linolenate 2 μg/ml): +
Bacterial growth ([2]; zinc linolenate 4 μg/ml): +
Bacterial growth ([2]; zinc linolenate 8 μg/ml): +
Bacterial growth ([2]; zinc linolenate 16 μg/ml): +
Bacterial growth ([2]; zinc linolenate 32 μg/ml): +
Bacterial growth ([2]; zinc linolenate 64 μg/ml): +
Bacterial growth ([2]; zinc linolenate 128 μg/ml): +
Bacterial growth (Candida albicans; zinc linolenate 2 μg/ml): +
Bacterial growth (Candida albicans; zinc linolenate 4 μg/ml): +
Bacterial growth (Candida albicans; zinc linolenate 8 μg/ml): +
Bacterial growth (Candida albicans; zinc linolenate 16 μg/ml): +
Bacterial growth (Candida albicans; zinc linolenate 32 μg/ml): +
Bacterial growth (Candida albicans; zinc linolenate 64 μg/ml): +
Bacterial growth (Candida albicans; zinc linolenate 128 μg/ml): +
Bacterial growth ([3]; zinc linolenate 2 μg/ml): +
Bacterial growth ([3]; zinc linolenate 4 μg/ml): +
Bacterial growth ([3]; zinc linolenate 8 μg/ml): +
Bacterial growth ([3]; zinc linolenate 16 μg/ml): +
Bacterial growth ([3]; zinc linolenate 32 μg/ml): +
Bacterial growth ([3]; zinc linolenate 64 μg/ml): +
Bacterial growth ([3]; zinc linolenate 128 μg/ml): +
Bacterial growth ([4]; zinc linolenate 2 μg/ml): +
Bacterial growth ([4]; zinc linolenate 4 μg/ml): +
Bacterial growth ([4]; zinc linolenate 8 μg/ml): +
Bacterial growth ([4]; zinc linolenate 16 μg/ml): +
Bacterial growth ([4]; zinc linolenate 32 μg/ml): +
Bacterial growth ([4]; zinc linolenate 64 μg/ml): +
Bacterial growth ([4]; zinc linolenate 128 μg/ml): −
Bacterial growth (Listeria; zinc linolenate 2 μg/ml): +
Bacterial growth (Listeria; zinc linolenate 4 μg/ml): +
Bacterial growth (Listeria; zinc linolenate 8 μg/ml): +
Bacterial growth (Listeria; zinc linolenate 16 μg/ml): +
Bacterial growth (Listeria; zinc linolenate 32 μg/ml): +
Bacterial growth (Listeria; zinc linolenate 64 μg/ml): +
Bacterial growth (Listeria; zinc linolenate 128 μg/ml): +
Bacterial growth ([5]; zinc linolenate 2 μg/ml): +
Bacterial growth ([5]; zinc linolenate 4 μg/ml): +
Bacterial growth ([5]; zinc linolenate 8 μg/ml): +
Bacterial growth ([5]; zinc linolenate 16 μg/ml): +
Bacterial growth ([5]; zinc linolenate 32 μg/ml): +
Bacterial growth ([5]; zinc linolenate 64 μg/ml): +
Bacterial growth ([5]; zinc linolenate 128 μg/ml): +
Bacterial growth ([6]; zinc linolenate 2 μg/ml): +
Bacterial growth ([6]; zinc linolenate 4 μg/ml): +
Bacterial growth ([6]; zinc linolenate 8 μg/ml): +
Bacterial growth ([6]; zinc linolenate 16 μg/ml): +
Bacterial growth ([6]; zinc linolenate 32 μg/ml): +
Bacterial growth ([6]; zinc linolenate 64 μg/ml): +
Bacterial growth ([6]; zinc linolenate 128 μg/ml): +
Bacterial growth ([7]; zinc linolenate 2 μg/ml): +
Bacterial growth ([7]; zinc linolenate 4 μg/ml): +
Bacterial growth ([7]; zinc linolenate 8 μg/ml): +
Bacterial growth ([7]; zinc linolenate 16 μg/ml): +
Bacterial growth ([7]; zinc linolenate 32 μg/ml): +
Bacterial growth ([7]; zinc linolenate 64 μg/ml): +
Bacterial growth ([7]; zinc linolenate 128 μg/ml): +
Bacterial growth ([8]; zinc linolenate 2 μg/ml): +
Bacterial growth ([8]; zinc linolenate 4 μg/ml): +
Bacterial growth ([8]; zinc linolenate 8 μg/ml): +
Bacterial growth ([8]; zinc linolenate 16 μg/ml): +
Bacterial growth ([8]; zinc linolenate 32 μg/ml): +
Bacterial growth ([8]; zinc linolenate 64 μg/ml): +
Bacterial growth ([8]; zinc linolenate 128 μg/ml): +
Bacterial growth ([9]; zinc linolenate 2 μg/ml): +
Bacterial growth ([9]; zinc linolenate 4 μg/ml): +
Bacterial growth ([9]; zinc linolenate 8 μg/ml): +
Bacterial growth ([9]; zinc linolenate 16 μg/ml): +
Bacterial growth ([9]; zinc linolenate 32 μg/ml): +
Bacterial growth ([9]; zinc linolenate 64 μg/ml): +
Bacterial growth ([9]; zinc linolenate 128 μg/ml): +
Alanine aminotransferase [10]: 50.00 U/L
Aspartate aminotransferase [10]: 192.33 U/L
Blood urea nitrogen [10]: 14.97 mmol/L
Creatinine [10]: 18.33 µmol/L
